Entries after “also recorded” stand apart in the source; their conditions may differ. Each block holds one compound with its values, some of them ahead of it.
How the values were obtained:
ATX = ATX (UniProt Q9R1E6); experiment: ATX inhibitory activity, Amplex Red method; format: biochemical; conditions: LPC 16:0 50 μM, two independent experiments, read-out: IC50 against ATX
Description: The inhibition of ATX enzyme activity of the pharmaceutical compound A-1 was measured in vitro by applying the Amplex Red method. Briefly, 2 μL of concentration from 0.001 to 5 μmol/L of derivative […] in DMSO was incubated with 50 μL ATX 8 nM (up to a final concentration of 2 nM and 1 nM for human ATX) and 48 μL of a buffer solution (50 mM Tris-Cl of pH 8.0 and 5 mM CaCl2) for 15 minutes at 37° C. Subsequently, 50 μL of a buffer solution containing 200 μM LPC 16:0 (final concentration 50 μM) was added to the reaction mixture followed by incubation for another 30 minutes at 37° C. Finally, 50 μL of working solution containing 200 μM Amplex Red reagent and choline oxidase (0.2 U/mL) […] HRP (2 U/mL), in 50 mM Tris-HCl at pH 8.0 and 5 mM CaCl2, was added to begin the reaction. The reaction was monitored at 37° C., in a fluorescence plate reader (Tecan Infinite 200) using excitation at 530 nm and reading at 590 nm, every five minutes for 30 minutes at 37° C. The IC50 value was calculated from two independent experiments, using the sigmoid dose-response curve (PrismH software) from the equation f=y0+a/(1+exp(−(x−x0)/b) given from SigmaPlot 11.0.

Mouse ATX = biological target: T1, Mouse ATX (Mus musculus, UniProt Q9R1E6); experiment: Mode of inhibition of ATX, modified Amplex assay (Lineweaver-Burk); format: biochemical; conditions: inhibitor 1-7.5 μM, LPC 25, 50, 100 μM
T1 construct: purchased Sino Biological
Description: To determine the mode of inhibition of ATX by each inhibitor, a modified Amplex assay was employed. In brief, various concentrations of inhibitors (1, 2.5, 5 and 7.5 μM) were tested against various substrate concentrations (LPC 25, 50, 100 μM). Mouse ATX from Sino Biological was used in all mode of inhibition assays. Thereafter, the velocity (V) of the reaction was calculated and the reciprocal of velocity (1/V) was plotted against the reciprocal of substrate concentration (1/S) in Lineweaver-Burk graphs using GraphPad Software (GraphPad Software, San Diego, CA, USA).

choline oxidase = experiment: 2nd reaction of the Amplex Red assay (counter-test); format: biochemical; conditions: 2nd reaction of Amplex Red assay
HRP peroxidase = biological target: T2, HRP peroxidase (Armoracia rusticana, UniProt P00433); experiment: 3rd reaction of the Amplex Red assay (counter-test); format: biochemical; conditions: 3rd reaction of Amplex Red assay
T2 sequence (P00433 31-338 limits assumed): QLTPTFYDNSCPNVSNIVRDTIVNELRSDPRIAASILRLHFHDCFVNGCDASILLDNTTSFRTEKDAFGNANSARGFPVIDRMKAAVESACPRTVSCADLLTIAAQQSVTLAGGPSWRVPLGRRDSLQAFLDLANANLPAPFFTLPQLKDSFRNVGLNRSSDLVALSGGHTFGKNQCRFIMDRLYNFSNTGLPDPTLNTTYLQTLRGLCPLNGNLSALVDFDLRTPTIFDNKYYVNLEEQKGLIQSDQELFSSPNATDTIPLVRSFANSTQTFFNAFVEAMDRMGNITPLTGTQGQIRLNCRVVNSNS

[1] = In vitro absorption assay, membrane permeability; format: in vitro ADME; conditions: dog, MDCK, MDCKII
Description: The in vitro absorption assay was performed in the kidney MDCKII cell line and involves the permeability from A to B, when A and B are separated by an MDCKII cell membrane. Ideally, a compound should have a high A to B permeability, but a lower B to A permeability in order to be well-absorbed. […] The A-B permeability is much higher than the B-A permeability, thus both compounds are absorbed well in vitro.

[2] = In vitro metabolism assay in liver microsomes; format: in vitro ADME
Description: The in vitro metabolism assay was performed in liver microsomes. […] This half-live is higher than the ones of known drugs such as imipramine and others, therefore, it seems that A-1 is not quickly cleared from the circulation and, thus, remain available in the circulation for a sufficient period of time.

hERG = biological target: T3, hERG (Homo sapiens, UniProt Q12809); experiment: Cardiac toxicity assay, hERG inhibition in CHO cells; format: cell-based; conditions: for cardiotoxicity (conclusion): from hERG assay
T3 construct: expressed in transfected cells; host or cells: CHO cells
T3 sequence (Q12809 whole entry): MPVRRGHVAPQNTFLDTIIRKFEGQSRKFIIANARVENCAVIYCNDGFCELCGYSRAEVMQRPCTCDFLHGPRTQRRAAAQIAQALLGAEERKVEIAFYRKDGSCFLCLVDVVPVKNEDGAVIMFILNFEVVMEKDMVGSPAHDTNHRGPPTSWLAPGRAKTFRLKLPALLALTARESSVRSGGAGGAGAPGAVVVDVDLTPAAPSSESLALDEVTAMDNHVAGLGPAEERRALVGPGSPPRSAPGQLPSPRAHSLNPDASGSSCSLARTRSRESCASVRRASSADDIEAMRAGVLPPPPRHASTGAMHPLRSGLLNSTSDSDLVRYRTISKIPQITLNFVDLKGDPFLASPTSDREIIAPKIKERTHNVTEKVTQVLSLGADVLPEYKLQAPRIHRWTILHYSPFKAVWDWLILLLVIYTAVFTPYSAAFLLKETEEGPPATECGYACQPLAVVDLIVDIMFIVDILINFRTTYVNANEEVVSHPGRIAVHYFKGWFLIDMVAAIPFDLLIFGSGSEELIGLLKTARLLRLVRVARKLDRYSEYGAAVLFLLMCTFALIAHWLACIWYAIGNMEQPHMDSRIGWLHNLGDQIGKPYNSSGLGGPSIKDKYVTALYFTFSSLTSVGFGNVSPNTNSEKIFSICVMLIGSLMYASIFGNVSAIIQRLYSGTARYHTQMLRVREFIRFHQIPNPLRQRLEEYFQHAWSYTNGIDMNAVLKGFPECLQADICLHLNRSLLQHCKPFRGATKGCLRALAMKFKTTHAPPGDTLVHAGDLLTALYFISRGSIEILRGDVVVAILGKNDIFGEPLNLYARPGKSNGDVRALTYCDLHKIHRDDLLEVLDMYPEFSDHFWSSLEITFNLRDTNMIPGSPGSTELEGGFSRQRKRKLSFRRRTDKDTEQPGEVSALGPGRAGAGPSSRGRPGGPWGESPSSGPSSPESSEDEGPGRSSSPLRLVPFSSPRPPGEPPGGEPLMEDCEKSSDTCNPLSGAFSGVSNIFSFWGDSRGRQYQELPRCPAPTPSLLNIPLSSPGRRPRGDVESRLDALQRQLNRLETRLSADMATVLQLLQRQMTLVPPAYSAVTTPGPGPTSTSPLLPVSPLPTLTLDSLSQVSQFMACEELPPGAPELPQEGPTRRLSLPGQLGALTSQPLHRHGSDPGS
Description: The assay of cardiac toxicity is performed on CHO cells that express the human ether-a-go-go related gene (hERG) that encodes the inward rectifying voltage gated potassium channel in the heart, which is involved in cardiac repolarisation. Inhibition of the hERG may cause potentially fatal ventricular tachyarrhythmia.

[3] = test system: BLM-induced pulmonary fibrosis; experiment: Bleomycin (BLM)-induced pulmonary fibrosis in mice, dosing from one day before BLM; format: in vivo, C57Bl6/J mice
Description: 10-week-old male wild-type C57Bl6/J animals were administered a saline solution of bleomycin (BLM) directly to the lungs via the orotracheal route. The dose of bleomycin was 0.8 U/kg. […] All animals were monitored daily until the 14th day after the BLM injection when they were killed. […] Serum, broncheoalveolar fluid and lung tissue samples were taken at the end point of the experiment and were used to assess the severity of fibrosis for each animal.
Blood serum was collected for each animal and levels of ALT and AST transaminases, which are markers of liver damage, were assessed by using an automated biochemical analyzer.
Next, in the collected broncheoalveolar fluid, the number of cells as well as the total protein concentration were assessed as indicators of inflammation and endothelial penetration, respectively.
Additionally, in sections of lung tissue isolated from the animals, fibrosis was assessed after staining with hematoxylin and eosin.
The mRNA levels of fibrosis-related genes col1α1 (collagen 1α1) in whole lung RNA samples were also estimated.

[4] = test system: BLM-induced pulmonary fibrosis; experiment: BLM-induced pulmonary fibrosis in mice, inhalation in therapeutic mode; format: in vivo, C57B16/J mice; conditions: inhalation 15 mg/Kg twice daily for 7 days, from 7d post BLM
Description: To explore the therapeutic potential of ATX inhibition in pulmonary fibrosis, BLM was administered to 8-10-week-old C57B16/J mice. Subsequently, the pharmaceutical compound A-1 was delivered for 7 days twice daily via inhalation (1 ml of 6.5 mg/ml for 10 mins/6 mice, corresponding to 15 mg/Kg per mouse) to conscious, gently re-strained mice, in a therapeutic mode (7d post BLM).

[5] = 30 mg/kg, 2 doses daily, vs B+V group

SMILES: O=C1NC(=O)C(Cc2ccc(OCCN3CCN(C(=O)OCc4cc(Cl)cc(Cl)c4)CC3)cc2)S1 (centres unmarked) [A-1, 3,5-dichlorobenzyl4-(2-(4-((2,4-dioxothiazolidin-5-yl)methyl)phenoxy)ethyl)piperazine-1-carboxylate]
- IC50 (ATX): 190 nM
- mode of inhibition against ATX (Mouse ATX): non-competitive inhibition
- inhibition of choline oxidase (choline oxidase): no inhibition; also recorded: Neither compound showed any detectable inhibition
- inhibition of HRP peroxidase (HRP peroxidase): no inhibition; also recorded: Neither compound showed any detectable inhibition
- Papp A→B ([1]; A to B): 3.7 ×10⁻⁶ cm/s
- Papp B→A ([1]; B to A): 0.8 ×10⁻⁶ cm/s
- microsomal CLint ([2]; liver microsomes, read-out: Clint (intrinsic clearance)): 329 µL/min/mg
- half-life ([2]; microsomes): 21 min
- IC50 (hERG): 12000 nM
- cardiotoxicity (conclusion) (hERG): not cardiotoxic; also recorded: does not exhibit cardiotoxicity
- side effects during the model ([3]; 30 mg/kg, 2 doses daily, 14 days post BLM, vs untreated group): did not suffer any unwanted side effects
- fibrotic areas in lung sections, hematoxylin and eosin [3, 5]: less fibrotic areas
- number of cells in bronchoalveolar fluid [3, 5]: reduced number of cells
- total protein concentration in bronchoalveolar fluid [3, 5]: lower levels
- col1α1 mRNA levels in whole lung ([3]; 30 mg/kg, 2 doses daily, vs B+V, restored to S+V level): reduces the mRNA levels (expression) of col1α1 statistically significantly
- serum ALT level ([3]; 30 mg/kg, 2 doses daily, normal range 28-132 U/L): normal
- serum AST level ([3]; 30 mg/kg, 2 doses daily, normal range 59-247 U/L): normal
- liver toxicity / hepatotoxicity (conclusion) ([3]; from ALT and AST levels): does not cause any adverse toxicity to the liver; also recorded: does not exhibit hepatotoxicity
- inflammatory cells in BALF [4]: significantly reduced
- lung architecture, H&E staining [4]: prevented BLM-induced architectural distortion
- lung respiratory functions (FlexiVent) [4]: relative protection
- vascular leak and pulmonary edema (total protein concentration in BALF) [4]: noteworthy decrease

SMILES: O=C1NC(=O)C(Cc2ccc(OCCC3CCN(C(=O)OCc4cc(Cl)cc(Cl)c4)CC3)cc2)S1 (centres unmarked) [A-3, 3,5-dichlorobenzyl 4-(2-(4-((2,4-dioxothiazolidin-5-yl)methyl)phenoxy)ethyl)piperidine-1-carboxylate]
- IC50 (ATX): 30 nM
- mode of inhibition against ATX (Mouse ATX): non-competitive inhibition
- inhibition of choline oxidase (choline oxidase): no inhibition; also recorded: Neither compound showed any detectable inhibition
- inhibition of HRP peroxidase (HRP peroxidase): no inhibition; also recorded: Neither compound showed any detectable inhibition
- cardiotoxicity (conclusion) (hERG): not cardiotoxic; also recorded: does not exhibit cardiotoxicity
- inhibition at 25 µM (hERG; human, at 25 μM): 11%

- IC50 (ATX): 610 nM
SMILES: Cc1c(C)c2c(c(C)c1O)CCC(C)(COc1ccc(CC3SC(=O)NC3=O)cc1)O2 (centres unmarked) [TGL, troglitazone, reference compound]

— patent publication US20260102390A1, “4-(2-(4-((2,4-DIOXOTHIAZOLIDIN-5-YL)METHYL)PHENOXY) DERIVATIVES AS PPARgamma AGONISTS AND AUTOTAXIN INHIBITORS FOR USE IN THE TREATMENT OF FIBROSIS” (Uni-Pharma Kleon Tsetis Pharmaceutical Laboratories S.A., priority 2022, published 2026)
